Results as given in patent US20040106104A1, “Viral envelope mediated fusion assay” (priority 2002, published 2004).

Assays:
HIV NL4-3 envelope = experiment: TOPO cell mediated fusion assay, NL4-3 envelope; type: cell-based; settings: envelope NL4-3; linear envelope expression element; Hela H1 effector and target cells, luciferase; read-out: BMS-806 EC50 TOPO Cell Fusion
Description: (§1) Preparation of Linear HIV Envelope Expression Element HIV viral RNA was isolated from 140 μl culture supernatant using a QIAamp Viral RNA Mini Kit (Qiagen Inc). The viral RNA was eluted in 60 μl of elution buffer. First strand cDNA was synthesized using the SuperScript First-Strand Synthesis system for RT-PCR (Invitrogen Corporation) using 8 μl of viral RNA and random hexamers according to the manufactures instructions. The HIV envelope gene was PCR amplified using 4 μl of first strand CDNA, primers BF17 5′-[sequence]-3′ and ENV-N 5′-[sequence]-3′ and a Platimun Taq DNA Polymerase High Fidelity Kit (Invitrogen) in a 100 μl reaction. The PCR product was purified using a QIAquick PCR Purification Kit (Qiagen Inc, Valencia, Calif.). In order to introduce the proper ends for the TOPO reaction 1 μl of the first PCR reaction was PCR amplified using primers:
(§2) in 100 μl as before. The PCR reaction was run on a 0.7% agarose gel and the about 3 kb HIV envelope gene was gel purified using a QIAquick Gel Extraction KIT (Qiagen Inc). The 5′ CMV promoter element and 3′ SV40 polyadenylation element were added to 700 ng of the HIV envelope PCR fragment using a TOPO Tools Kit (Invitrogen) and the final PCR product was purified as before. […]

HIV NL4-3 whole virus = experiment: Whole virus assay, NL4-3; type: cell-based; settings: read-out: BMS-806 EC50 Whole Virus
HIV LAI whole virus = experiment: Whole virus assay, LAI; type: cell-based; settings: read-out: BMS-806 EC50 Whole Virus
HIV envelope BRH04820 = experiment: TOPO cell mediated fusion assay, clinical envelope BRH04820; type: cell-based; settings: clinical envelope BRH04820, source serum; read-out: BMS-806 EC50 TOPO Fusion
Description: (§3) The effector cells were prepared by transfecting 1.7×10^6 Hela H1 cells in a T75 flask with the linear viral envelope expression element and pTET-Off using a Lipofectamine Plus Kit (Invitrogen) as follows. 3 μg of the linear envelope expression vector and 3 μg of pTET-OFF were mixed with 750 μl of D-MEM media. 49 μl of Plus Reagent was added to the DNA mixture, the solution was mixed. After 15 minutes at room temperature a solution consisting of 750 μl D-MEM and 30 μl of lipofectamine was added to the DNA solution. The solution was mixed and incubated at room temperature for 15 minutes. The media from 1.7×10^6 Hela H1 cells ion a T75 flask was removed, the cells were washed with 15 ml of D-PBS, and 6 ml of D-MEM without serum was added to the cells. The DNA/lipofectamine solution was mixed, added to the cells and the cells were then incubated at 37° C. in the presence of 5% CO2. After 4 hours, the transfection mixture was removed and replaced with 15 ml of D-MEM 10% FBS and incubated overnight at 37° C. in the presence of 5% CO2.
(§4) Preparation of Target Cells Hela H1 cells expressing CD4, CXCR4, CCR5, and containing an integrated copy of a TRE/luciferase reporter gene were used as target cells. These cells were maintained in DMEM containing 10% FBS, 0.2 mg/ml G418, 0.4 mg/ml zeocin, 0.1 mg/ml hygromycin B, and 1.5 μg/ml puromycin. […]

HIV envelope BRH04821 = experiment: TOPO cell mediated fusion assay, clinical envelope BRH04821; type: cell-based; settings: clinical envelope BRH04821, source serum; read-out: BMS-806 EC50 TOPO Fusion
Description: as §3, §4

HIV envelope 92US072 = experiment: TOPO cell mediated fusion assay, clinical envelope 92US072; type: cell-based; settings: clinical envelope 92US072, source PBMC; read-out: BMS-806 EC50 TOPO Fusion
Description: as §3, §4

HIV envelope 93US157 = experiment: TOPO cell mediated fusion assay, clinical envelope 93US157; type: cell-based; settings: clinical envelope 93US157, source PBMC; read-out: BMS-806 EC50 TOPO Fusion
Description: as §3, §4

HIV BRH04820 whole virus = experiment: Whole virus assay, BRH04820; type: cell-based; settings: BRH04820, source serum; read-out: BMS-806 EC50 Whole Virus
HIV BRH04821 whole virus = experiment: Whole virus assay, BRH04821; type: cell-based; settings: BRH04821, source serum; read-out: BMS-806 EC50 Whole Virus
HIV 92US072 whole virus = experiment: Whole virus assay, 92US072; type: cell-based; settings: 92US072, source PBMC; read-out: BMS-806 EC50 Whole Virus
HIV 93US157 whole virus = experiment: Whole virus assay, 93US157; type: cell-based; settings: 93US157, source PBMC; read-out: BMS-806 EC50 Whole Virus
HIV LAI envelope = HIV LAI envelope (Human immunodeficiency virus type 1 group M subtype B, UniProt P03377); settings: read-out: BMS-806 EC50 TOPO Cell Fusion, linear envelope expression element, Hela H1 effector and target cells, luciferase
Description: as §1, §2

COc1ccnc2[nH]cc(C(=O)C(=O)N3CCN(C(=O)c4ccccc4)C[C@H]3C)c12 [BMS-806]
EC50 (HIV NL4-3 envelope): 5.7 nM
EC50 (HIV NL4-3 whole virus): 2.1 nM
EC50 (HIV LAI whole virus): 2.5 nM
EC50 (HIV envelope BRH04820): 5.5 nM
EC50 (HIV envelope BRH04821): 2.7 nM
EC50 (HIV envelope 92US072): 818 nM
EC50 (HIV envelope 93US157): 2.3 nM
EC50 (HIV BRH04820 whole virus): 5.5 nM
EC50 (HIV BRH04821 whole virus): 5.3 nM
EC50 (HIV 92US072 whole virus): 336 nM
EC50 (HIV 93US157 whole virus): 3.9 nM
EC50 (HIV LAI envelope): 3.5 nM
